In article PMC8373237 (Antimicrobial Agents and Chemotherapy, 2021):
pIC50: −log10 of the molar value. Values after ≈ are worked out from the molar mass of the structure shown. Like-named read-outs stand apart in the source and are kept apart here. Marks after values point to notes of the source that are not given here. Square brackets hold non-standard residues; d marks the D form. Peptide text beside a SMILES is read from it. Nphe = O=C(O)CNCc1ccccc1; NPrGly = CCCNCC(=O)O; Sar = CNCC(=O)O

Key:
[1] = test system: Hrc1 T3SS, Pseudomonas syringae; conditions: biochemical assay, cited from earlier work; for lowest known inhibitory concentration (∼), hrpA: ref [108]
[2] = Kinetic solubility; type: physicochemical
Experimental: […] Then, […] of 15 mM stock compound was added to make a solution of 120 μM final concentration with 0.8% DMSO. The solution was shaken at 37°C for ∼2 h. The solution was passed over a 0.7- μM glass fiber filter. Then, the solution was diluted 1:4 in acetonitrile to crash out any proteins. The solution was centrifuged at 500 × g for 10 min. Avoiding the pellet, 10 μl of supernatant was added to a fresh plate with 90 μl of acetonitrile. The final dilution is 40 times lower. Next, 10 μl of 40× dilution of solution was injected on the Orbi-trap. A 1 μM standard was used for the ratiometric comparison, and the assay was done in triplicate.

[3] = test system: P. aeruginosa PA103 T3SS (ExoU secretion); type: cell-based, Pseudomonas aeruginosa
[4] = test system: Pseudomonas aeruginosa Psc T3SS; conditions: culture-based secretion assay, cited from earlier work
[5] = test system: Salmonella enterica Typhimurium SPI-1 T3SS; conditions: cited from earlier work
[6] = test system: Chlamydiales T3SS, Chlamydia; conditions: cell-based infection assay, cited from earlier work
[7] = test system: Y. pseudotuberculosis twin arginine translocation (Tat) system; type: cell-based, Yersinia pseudotuberculosis; conditions: culture optical density, 4 and 6 h
[8] = test system: Yersinia pseudotuberculosis Ysc T3SS; conditions: cited from earlier work; for pIC50: culture-based secretion assay
[9] = test system: Pseudomonas aeruginosa Psc T3SS; conditions: cited from earlier work
[10] = read-out: IC50, inhibition of secretion of T3SS effector ExoU

Molecule: COc1cc(C(=O)O)ccc1O [Vanillic acid]
- lowest known inhibitory concentration (∼), hrpA [1]: ∼2.5 mM hrpA^e

Molecule: CC[C@H](C)[C@@H]1NC(=O)[C@H](CC(C)C)NC(=O)CN(Cc2ccccc2)C(=O)CN(C)C(=O)[C@@H](Cc2ccccc2)NC(=O)[C@@H](CC(C)C)NC1=O [4EpDN 1Sar, 4-EpD1,2N 1Sar] (cyclo(I[dL][dF][Sar][Nphe]L))
- solubility ([2]; DMEM (no antibiotics)): 6 µM (≈ 4.23 µg/mL)
- solubility ([2]; M9): 4 µM (≈ 2.82 µg/mL)
- T3SS inhibitory activity (ExoU secretion), in words [3]: significantly reduced activity
- pIC50 ([3]; read-out: IC50 (Table S1)): 4.72

Molecule: CCC(Oc1ncc(Cl)cc1Cl)C(=O)NCc1ccc2sccc2c1 (centres unmarked) [MBX2401]
- pIC50 ([4]; ref [44], read-out: IC50, ExoS secretion): 5.92

Molecule: COc1c2cc(c(O)c1OC)CCCC[C@@H](O)CCc1ccc(O)c-2c1 [Myricanol]
- pIC50 ([5]; footnote printed as a, ref [107], read-out: IC50, SipC): 4.38

Molecule: CCCN1CC(=O)N(Cc2ccccc2)CC(=O)N[C@@H](CC(C)C)C(=O)N[C@@H]([C@@H](C)CC)C(=O)N[C@@H](CC(C)C)C(=O)N[C@H](Cc2ccccc2)C1=O [2EpDN, 2-EpD1,2N] (cyclo(IL[dF][NPrGly][Nphe]L))
- solubility kinetic [2]: 12 µM (≈ 8.8 µg/mL)
- pIC50 ([3]; read-out: IC50 (Table S1)): 4.82

Molecule: O=c1cc(-c2ccccc2)oc2cc(O)c(O)c(O)c12 [Baicalein]
- pIC50 ([6]; ref [84], [85]): 3.30
- pIC50 ([5]; culture-based secretion assay, ref [84], [85], read-out: IC50, SopE2 secretion): 5.44

Molecule: CCCN1CC(=O)N(Cc2ccccc2)CC(=O)N[C@@H](CC(C)C)C(=O)N[C@@H]([C@@H](C)CC)C(=O)N[C@H](CC(C)C)C(=O)N[C@@H](Cc2ccccc2)C1=O [5EpDN, 5-EpD1,2N] (cyclo(F[NPrGly][Nphe]LI[dL]))
- solubility kinetic [2]: 13 µM (≈ 9.53 µg/mL)
- pIC50 ([3]; read-out: IC50 (Table S1)): 5.20

Molecule: CC(Oc1ccc(Cl)cc1Cl)C(=O)NCc1ccc2c(c1)OCO2 (centres unmarked) [MBX1641]
- lowest known inhibitory concentration (∼), Chlamydia ([6]; ref [65]): ∼10^c μM
- pIC50 ([4]; ref [65], read-out: IC50, ExoS secretion): 5.00

Molecule: C[n+]1cc2c3c(ccc2c2ccc4cc5c(cc4c21)OCO5)OCO3 [Sanguinarine chloride]
- lowest known inhibitory concentration (∼), SipA ([5]; footnotes b and f: secretion assay and translocation assay, ref [88]): ∼5 SipA^b^f μM

Molecule: O=C1C=CC(=O)N1c1ccccc1 [N-phenylmaleimide]
- growth of SufI-β-lactamase Tat reporter bacteria in penicillin G / Tat inhibition, in words [7]: strongly reduced growth of bacteria

Molecule: O=C(N/N=C/c1ccc(O)c(O)c1O)c1ccccc1 [INP0401]
- lowest known inhibitory concentration (∼), hrp ([1]; ref [78]): ∼50 hrp^e μM

Molecule: CCCN1CC(=O)N(Cc2ccccc2)CC(=O)N[C@H](CC(C)C)C(=O)N[C@@H](C)C(=O)N[C@@H](CC(C)C)C(=O)N[C@H](Cc2ccccc2)C1=O [1EpDN 4Ala, EpD1,2N 4Ala] (cyclo(AL[dF][NPrGly][Nphe][dL]))
- solubility kinetic [2]: 75 µM (≈ 51.8 µg/mL)
- pIC50 ([3]; read-out: IC50 (Table S1)): < 3.00

Molecule: COc1ccc(C(C)=O)c(O)c1 [Paeonol]
- lowest known inhibitory concentration (∼), Sips secretion ([5]; culture-based secretion assay, ref [99]): ∼95 Sips^b μM

Molecule: O=C(N/N=C/c1cc(Br)cc(Br)c1O)c1ccc([N+](=O)[O-])cc1 [INP0007]
- lowest known inhibitory concentration (∼), YopE secretion [8]: ∼50 YopE^b μM
- lowest known inhibitory concentration (∼), SipAC secretion ([5]; culture-based secretion assay, ref [64], [72]): ∼100 SipAC^b μM

Molecule: Cc1cc(Cl)cc(/C=N/NC(=O)c2ccc(O)cc2O)c1O [INP0341]
- lowest known inhibitory concentration (∼), Chlamydia ([6]; ref [68], [70]): ∼20^c μM
- lowest known inhibitory concentration (∼), PA ([9]; cell-based infection assay, ref [68], [70]): ∼80^c μM

Molecule: CCCN1CC(=O)N(Cc2ccccc2)CC(=O)N[C@H](C)C(=O)N[C@@H]([C@@H](C)CC)C(=O)N[C@@H](CC(C)C)C(=O)N[C@H](Cc2ccccc2)C1=O [1EpDN 3Ala, EpD1,2N 3Ala] (cyclo(IL[dF][NPrGly][Nphe][dA]))
- solubility [2]: 180 µM (≈ 124 µg/mL)
- pIC50 ([3]; read-out: IC50 (Table S1)): < 3.00

Molecule: CCCN1CC(=O)N(Cc2ccccc2)CC(=O)N[C@H](CC(C)C)C(=O)N[C@@H]([C@@H](C)CC)C(=O)N[C@@H](C)C(=O)N[C@H](Cc2ccccc2)C1=O [1EpDN 5Ala, EpD1,2N 5Ala] (cyclo(A[dF][NPrGly][Nphe][dL]I))
- solubility kinetic [2]: 127 µM (≈ 87.7 µg/mL)
- pIC50 ([3]; read-out: IC50 (Table S1)): < 3.00

Molecule: Cc1ccc(S(=O)(=O)/C=C/C#N)cc1 [Bay 11-7082]
- growth of SufI-β-lactamase Tat reporter bacteria in penicillin G / Tat inhibition, in words [7]: strongly reduced growth of bacteria

Molecule: O=C(N/N=C/c1cc(Br)cc(Br)c1O)c1cccnc1 [ME0052]
- lowest known inhibitory concentration (∼), Yops secretion [8]: ∼20 Yops^b μM

Molecule: (-)-Hopeaphenol
- lowest known inhibitory concentration (∼), Chlamydia ([6]; ref [97]): ∼25^c μM
- lowest known inhibitory concentration (∼), ExoS secretion ([4]; ref [97]): ∼50 ExoS^b μM
- pIC50 ([8]; ref [97], read-out: IC50, YopD secretion): 5.48

Molecule: Cc1c(C)c2c(c(C)c1O)CC[C@@](C)(CCC[C@H](C)CCC[C@H](C)CCCC(C)C)O2 [α-tocopherol]
- lowest known inhibitory concentration (∼), PA, ExoY ([9]; footnotes c and f: cell-based infection assay, ExoY translocation assay, ref [105]): ∼10^c ExoY^f μM

Molecule: O=C(O)c1ccc(O)cc1 [4-Hydroxybenozic acid]
- lowest known inhibitory concentration (∼), hrpA [1]: ∼2.5 mM hrpA^e

Molecule: O=C(N/N=C/c1c(O)ccc2ccccc12)c1ccc(Cl)cc1 [INP0400]
- lowest known inhibitory concentration (∼), Chlamydia ([6]; ref [70]): ∼20^c μM

Molecule: CCCN1CC(=O)N(Cc2ccccc2)CC(=O)N[C@@H](CC(C)C)C(=O)N[C@H]([C@H](C)CC)C(=O)N[C@H](CC(C)C)C(=O)N[C@@H](Cc2ccccc2)C1=O [9EpDN, 9-EpD1,2N] (cyclo(F[NPrGly][Nphe]L[dI][dL]))
- solubility kinetic [2]: 10 µM (≈ 7.33 µg/mL)
- pIC50 ([3]; read-out: IC50 (Table S1)): 4.89
- pIC50 [3, 10]: ~4.89

Molecule: CC(C)=CCc1c(O)cc2oc(-c3ccc(O)cc3)c(O)c(=O)c2c1O [Licoflavonol]
- lowest known inhibitory concentration (∼), SipC secretion ([5]; culture-based secretion assay, ref [86]): ∼50 SipC^b μM

Molecule: CCCN1CC(=O)N(Cc2ccccc2)CC(=O)N[C@H](CC(C)C)C(=O)N[C@@H]([C@@H](C)CC)C(=O)N[C@H](CC(C)C)C(=O)N[C@H](Cc2ccccc2)C1=O [3EpDN, 3-EpD1,2N] (cyclo(I[dL][dF][NPrGly][Nphe][dL]))
- solubility kinetic [2]: 18 µM (≈ 13.2 µg/mL)
- pIC50 ([3]; read-out: IC50 (Table S1)): 4.80

Molecule: CCCCc1ccc(C(=O)O)nc1 [Fusaric acid]
- pIC50 ([5]; culture-based secretion assay, ref [101], read-out: IC50, SipC secretion): 4.27

Molecule: CCCN1CC(=O)N(Cc2ccccc2)CC(=O)N[C@H](CC(C)C)C(=O)N[C@@H]([C@@H](C)CC)C(=O)N[C@H](CC(C)C)C(=O)N[C@@H](Cc2ccccc2)C1=O [6EpDN, 6-EpD1,2N] (cyclo(F[NPrGly][Nphe][dL]I[dL]))
- solubility kinetic [2]: 1 µM (≈ 0.733 µg/mL)
- pIC50 ([3]; read-out: IC50 (Table S1)): < 3.00

Molecule: CCCN1CC(=O)N(Cc2ccccc2)CC(=O)N[C@H](CC(C)C)C(=O)N[C@@H]([C@@H](C)CC)C(=O)N[C@@H](CC(C)C)C(=O)N[C@@H](Cc2ccccc2)C1=O [8EpDN, 8-EpD1,2N] (cyclo(F[NPrGly][Nphe][dL]IL))
- solubility kinetic [2]: 1 µM (≈ 0.733 µg/mL)
- pIC50 ([3]; read-out: IC50 (Table S1)): 4.38

Molecule: CCOc1cc(CN2N=C(C(=O)Nc3ccc(F)cc3F)SCC2=O)ccc1O [Fluorothiazinon]
- lowest known inhibitory concentration (∼), Chlamydia ([6]; ref [93]–[96]): ∼25^c μM
- lowest known inhibitory concentration (∼), ExoT, ExoY secretion ([4]; ref [93]–[96]): ∼20 μg/ml ExoT^b ExoY^b
- lowest known inhibitory concentration (∼), SipA ([5]; footnote printed as a, ref [93]–[96]): ~50 µM

Molecule: COc1cc(C=O)cc(OC)c1O [Syringaldehyde]
- lowest known inhibitory concentration (∼), Sips secretion ([5]; culture-based secretion assay, ref [100]): ∼180 Sips^b μM

Molecule: CCCN1CC(=O)N(Cc2ccccc2)CC(=O)N[C@H](CC(C)C)C(=O)N[C@@H]([C@@H](C)CC)C(=O)N[C@@H](CC(C)C)C(=O)N[C@H](Cc2ccccc2)C1=O [1EpDN, EpD1,2N] (cyclo(IL[dF][NPrGly][Nphe][dL]))
- solubility [2]: 14 to 17 µM (≈ 10.3 to 12.5 µg/mL)
- pIC50 ([4]; ref [22], read-out: IC50, ExoU secretion): 5.09
- pIC50 ([3]; read-out: IC50 (Table S1)): 5.09
- pIC50 [3, 10]: ~5.10
- pIC50 ([8]; ref [22], read-out: IC50, YopE secretion): 4.84

Molecule: CCCN1CC(=O)N(Cc2ccccc2)CC(=O)N[C@H](CC(C)C)C(=O)N[C@@H]([C@@H](C)CC)C(=O)N[C@@H](CC(C)C)C(=O)N[C@H](C)C1=O [1EpDN 6Ala, EpD1,2N 6Ala] (cyclo(IL[dA][NPrGly][Nphe][dL]))
- solubility kinetic [2]: 125 µM (≈ 82.1 µg/mL)
- pIC50 ([3]; read-out: IC50 (Table S1)): < 3.00
